What is called EC50 is the concentration needed to bring the measured effect to its halfway point.

For test [1], the target named is T1, human CB2 receptors (Homo sapiens, UniProt P34972).
T1 construct: expressed in transfected cells; host or cells: CHO cells
The test can be described thus: functional cAMP assay, CHO cells expressing human CB2. The class given is cell-based. As for the experimental part: (§1) CHO cells expressing human CB1 or CB2 receptors are seeded 17-24 hours prior to the experiment 50.000 cells per well in a black 96 well plate with flat clear bottom (Corning Costar #3904) in DMEM (Invitrogen No. 31331), 1×HT supplement, with 10% fetal calf serum and incubated at 5% CO2 and 37° C. in a humidified incubator. The growth medium was exchanged with Krebs Ringer Bicarbonate buffer with 1 mM IBMX and incubated at 30° C. for 30 min. Compounds were added to a final assay volume of 100 μl and incubated for 30 min at 30° C. Using the cAMP-Nano-TRF detection kit the assay (Roche Diagnostics) was stopped by the addition of 50 μl lysis reagent (Tris, NaCl, 1.5% Triton X100, 2.5% NP40, 10% NaN3) and 50 μl detection solutions (20 μM mAb Alexa700-cAMP 1:1, and 48 μM Ruthenium-2-AHA-cAMP) and shaken for 2 h at room temperature. The time-resolved energy transfer is measured by a TRF reader (Evotec Technologies GmbH), equipped with a ND:YAG laser as excitation source. The plate is measured twice with the excitation at 355 nm and at the emission with a delay of 100 ns and a gate of 100 ns, total exposure time 10 s at 730 (bandwidth 30 nm) or 645 nm (bandwidth 75 nm), respectively. The FRET signal is calculated as follows: FRET=T730-Alexa730-P(T645-B645) with P=Ru730-B730/Ru645-B645, where T730 is the test well measured at 730 nM, T645 is the test well measured at 645 nm, B730 and B645 are the buffer controls at 730 nm and 645 nm, respectively. cAMP content is determined from the function of a standard curve spanning from 10 μM to 0.13 nM cAMP.
(§2) EC50 values were determined using Activity Base analysis (ID Business Solution, Limited). The EC50 values for a wide range of cannabinoid agonists generated from this assay were in agreement with the values published in the scientific literature.
For orientation: Changes in cAMP serve as a functional read-out for many G protein-coupled receptors.

Test [2] deals with T2, human CB1 receptors (Homo sapiens, UniProt P21554).
T2 construct: expressed in transfected cells; host or cells: CHO cells
The test can be described thus: functional cAMP assay, CHO cells expressing human CB1. The format is cell-based. As for the experimental part: as §1, §2

Setting [3] is: functional cAMP assay, CHO cells expressing human CB2, read-out: Human CB2 EC50.

Like-named read-outs stand apart in the source and are kept apart here.

T2 sequence (P21554 whole entry): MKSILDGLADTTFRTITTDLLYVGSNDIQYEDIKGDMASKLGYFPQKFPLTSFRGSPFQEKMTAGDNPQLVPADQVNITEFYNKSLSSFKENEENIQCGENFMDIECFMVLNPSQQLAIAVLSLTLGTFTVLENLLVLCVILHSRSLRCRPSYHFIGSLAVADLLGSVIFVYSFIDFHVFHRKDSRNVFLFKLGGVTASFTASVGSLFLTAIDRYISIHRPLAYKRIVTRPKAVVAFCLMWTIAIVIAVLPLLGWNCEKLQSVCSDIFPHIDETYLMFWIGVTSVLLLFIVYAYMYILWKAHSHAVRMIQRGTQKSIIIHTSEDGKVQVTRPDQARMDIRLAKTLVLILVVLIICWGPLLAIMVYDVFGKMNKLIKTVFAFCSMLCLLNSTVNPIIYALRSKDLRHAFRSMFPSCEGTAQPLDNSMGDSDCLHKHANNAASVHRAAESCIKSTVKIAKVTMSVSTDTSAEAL
T1 sequence (P34972 whole entry): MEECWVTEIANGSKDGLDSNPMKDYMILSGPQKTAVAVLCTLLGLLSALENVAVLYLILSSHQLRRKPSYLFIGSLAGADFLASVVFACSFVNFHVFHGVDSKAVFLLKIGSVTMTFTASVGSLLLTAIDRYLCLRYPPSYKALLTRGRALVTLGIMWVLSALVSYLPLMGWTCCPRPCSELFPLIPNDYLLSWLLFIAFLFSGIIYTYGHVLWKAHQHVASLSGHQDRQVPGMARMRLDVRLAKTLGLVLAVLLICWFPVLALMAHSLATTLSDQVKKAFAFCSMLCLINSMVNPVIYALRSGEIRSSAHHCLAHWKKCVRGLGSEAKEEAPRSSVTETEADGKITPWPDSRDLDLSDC

With `NC(=O)C1CC2(CC2)CN1C(=O)c1ccc(C2CC2)c(OCC2CC2)c1` (stereo not drawn) [Example 22, 5-[4-Cyclopropyl-3-(cyclopropylmethoxy)benzoyl]-5-azaspiro[2.4]heptane-6-carboxamide], the concentration giving a half-maximal response (EC50) in test [1] is 28.1 nM; in test [2], > 10000 nM.

For `CC(C)(C)c1nc(-c2ccc(C3CC3)c(OCC(F)(F)F)c2)no1` [Example 23, 5-tert-Butyl-3-[4-cyclopropyl-3-(2,2,2-trifluoroethoxy)phenyl]-1,2,4-oxadiazole], the EC50 is 25.9 nM in test [1] and > 10000 nM in test [2].

For `CC(C)(C)c1nc(-c2ccc(C3CC3)c(OCC(F)F)c2)no1` [Example 24, 5-tert-Butyl-3-[4-cyclopropyl-3-(2,2-difluoroethoxy)phenyl]-1,2,4-oxadiazole], the EC50 is 15.5 nM in test [1] and > 10000 nM in test [2].

For `Cc1nc([C@@](C)(CC2CC2)NC(=O)c2ccc(C3CC3)c(OCC(F)(F)F)c2)no1` [Example 25, (−)-4-Cyclopropyl-N-[1-cyclopropyl-2-(5-methyl-1,2,4-oxadiazol-3-yl)propan-2-yl]-3-(2,2,2-trifluoroethoxy)benzamide], the concentration for a half-maximal effect (EC50) was 40.3 nM in test [1] and > 10000 nM in test [2].

As for `Cc1nc([C@](C)(CC2CC2)NC(=O)c2ccc(C3CC3)c(OCC(F)(F)F)c2)no1` [Example 26, (+)-4-Cyclopropyl-N-[1-cyclopropyl-2-(5-methyl-1,2,4-oxadiazol-3-yl)propan-2-yl]-3-(2,2,2-trifluoroethoxy)benzamide], the half-maximal effective concentration (EC50) in test [1] is 36.3 nM; in test [2], > 10000 nM.

In the case of `NC(=O)CC1(NC(=O)c2ccc(C3CC3)c(OCC(F)(F)F)c2)CS(=O)(=O)C1` [Example 27, N-[3-(2-Amino-2-oxoethyl)-1,1-dioxothietan-3-yl]-4-cyclopropyl-3-(2,2,2-trifluoroethoxy)benzamide], the 50% effective concentration (EC50) in test [1] was 98 nM; in test [2] it was > 10000 nM.

Regarding `Cc1nc([C@](C)(CS(C)(=O)=O)NC(=O)c2ccc(C3CC3)c(OCC(F)(F)F)c2)no1` [Example 28, 4-Cyclopropyl-N-[(2R)-1-(methanesulfonyl)-2-(5-methyl-1,2,4-oxadiazol-3-yl)propan-2-yl]-3-(2,2,2-trifluoroethoxy)benzamide], the values for the concentration for a half-maximal effect (EC50) in test [1] and in test [2] were 79.9 nM and > 10000 nM, respectively.

Turning to `Cc1nc([C@@](C)(CS(C)(=O)=O)NC(=O)c2ccc(C3CC3)c(OCC(F)(F)F)c2)no1` [Example 29, 4-Cyclopropyl-N-[(2S)-1-(methanesulfonyl)-2-(5-methyl-1,2,4-oxadiazol-3-yl)propan-2-yl]-3-(2,2,2-trifluoroethoxy)benzamide], the EC50 was 149 nM in test [1] and > 10000 nM in test [2].

For the compound `CC(C)(C)c1nc(-c2ccc(C3CC3)c(OCCF)c2)no1` [Example 30, 5-tert-Butyl-3-[4-cyclopropyl-3-(2-fluoroethoxy)phenyl]-1,2,4-oxadiazole], the concentration giving a half-maximal response (EC50) was 38.3 nM in test [1] and > 10000 nM in test [2].

Regarding `Cc1nc([C@@](C)(CC2CC2)NC(=O)c2ccc(C3CC3)c(OCC(F)F)c2)no1` [Example 31, (−)-4-Cyclopropyl-N-[1-cyclopropyl-2-(5-methyl-1,2,4-oxadiazol-3-yl)propan-2-yl]-3-(2,2-difluoroethoxy)benzamide], the values for the EC50 in test [1] and in test [2] were 16.6 nM and > 10000 nM, respectively.

For `Cc1nc([C@](C)(CC2CC2)NC(=O)c2ccc(C3CC3)c(OCC(F)F)c2)no1` [Example 32, (+)-4-Cyclopropyl-N-[1-cyclopropyl-2-(5-methyl-1,2,4-oxadiazol-3-yl)propan-2-yl]-3-(2,2-difluoroethoxy)benzamide], the EC50 in test [1] was 10.1 nM; in test [2] it was > 10000 nM.

With `Cc1nc([C@@](C)(CC2CC2)NC(=O)c2ccc(C3CC3)c(OCCF)c2)no1` [Example 33], the results for the 50% effective concentration (EC50) in test [1] and in test [2] were 59.4 nM and > 10000 nM, respectively.

Turning to `Cc1nc([C@](C)(CC2CC2)NC(=O)c2ccc(C3CC3)c(OCCF)c2)no1` [Example 34, (+)-4-Cyclopropyl-N-[1-cyclopropyl-2-(5-methyl-1,2,4-oxadiazol-3-yl)propan-2-yl]-3-(2-fluoroethoxy)benzamide], the half-maximal effective concentration (EC50) in test [1] was 57 nM; in test [2] it was > 10000 nM.

Consider `C[C@](CC(N)=O)(NC(=O)c1ccc(C2CC2)c(OCC(F)(F)F)c1)C1CC1` [Example 36, (+)-N-[4-amino-2-cyclopropyl-4-oxobutan-2-yl]-4-cyclopropyl-3-(2,2,2-trifluoroethoxy)benzamide], for which the EC50 in test [1] is 33.9 nM; in test [2] it was > 10000 nM.

Consider `CNC(=O)[C@@H](NC(=O)c1ccc(C2CC2)c(OC(C)C)c1)C(C)(C)C` [Example 37, 4-Cyclopropyl-N-[(2S)-3,3-dimethyl-1-(methylamino)-1-oxobutan-2-yl]-3-[(propan-2-yl)oxy]benzamide], for which the EC50 in test [1] is 5.33 nM; in test [2] it was > 10000 nM.

On to `CNC(=O)[C@@H](NC(=O)c1ccc(C2CC2)c(OCCF)c1)C(C)(C)C` [Example 39, 4-Cyclopropyl-N-[(2S)-3,3-dimethyl-1-(methylamino)-1-oxobutan-2-yl]-3-(2-fluoroethoxy)benzamide], for which the EC50 in test [1] worked out at 11.5 nM; in test [2], 1560 nM.

On to `NC(=O)[C@@H]1CC(F)(F)CN1C(=O)c1ccc(C2CC2)c(OCCF)c1` [Example 40, 1-[4-Cyclopropyl-3-(2-fluoroethoxy)benzoyl]-4,4-difluoro-L-prolinamide], for which the concentration giving a half-maximal response (EC50) was 216 nM in test [1] (setting [3]) and > 10000 nM in test [2].

`CNC(=O)[C@@H](NC(=O)c1ccc(C2CC2)c(OCC(F)(F)F)c1)C(C)(C)C` [Example 41, 4-Cyclopropyl-N-[(2S)-3,3-dimethyl-1-(methylamino)-1-oxobutan-2-yl]-3-(2,2,2-trifluoroethoxy)benzamide]: the figures for the EC50 in test [1] and in test [2] were 10 nM and 586 nM, respectively.

As for `NC(=O)[C@@H]1CC(F)(F)CN1C(=O)c1ccc(C2CC2)c(OCC(F)(F)F)c1` [Example 42, 1-[4-Cyclopropyl-3-(2,2,2-trifluoroethoxy)benzoyl]-4,4-difluoro-L-prolinamide], the values for the EC50 in test [1] (setting [3]) and in test [2] were 134 nM and > 10000 nM, respectively.

Consider `CC(C)Oc1cc(C(=O)N[C@@](C)(CC(N)=O)C2CC2)ccc1C1CC1` [Example 43, N-[(2S)-4-Amino-2-cyclopropyl-4-oxobutan-2-yl]-4-cyclopropyl-3-[(propan-2-yl)oxy]benzamide], for which the EC50 was 30.8 nM in test [1] and > 10000 nM in test [2].

For `CC(C)Oc1cc(C(=O)N[C@](C)(CC(N)=O)C2CC2)ccc1C1CC1` [Example 44, N-[(2R)-4-Amino-2-cyclopropyl-4-oxobutan-2-yl]-4-cyclopropyl-3-[(propan-2-yl)oxy]benzamide], the half-maximal effective concentration (EC50) in test [1] worked out at 2.91 nM; in test [2], 1090 nM.

On to `C[C@](CC(N)=O)(NC(=O)c1ccc(C2CC2)c(OCCF)c1)C1CC1` [Example 45, N-[(2R)-4-Amino-2-cyclopropyl-4-oxobutan-2-yl]-4-cyclopropyl-3-(2-fluoroethoxy)benzamide], for which the concentration for a half-maximal effect (EC50) was 7.42 nM in test [1] and > 10000 nM in test [2].

In the case of `CC(C)(C)c1noc(-c2ccc(C3CC3)c(N3CCC(F)(F)C3)c2)n1` [Example 47, 3-tert-Butyl-5-[4-cyclopropyl-3-(3,3-difluoropyrrolidin-1-yl)phenyl]-1,2,4-oxadiazole], the figures for the EC50 in test [1] and in test [2] were 5.33 nM and > 10000 nM, respectively.

With `CC(C)Oc1cc(C(=O)N2CC(F)(F)C[C@H]2C(N)=O)ccc1C1CC1` [Example 48, 1-{4-Cyclopropyl-3-[(propan-2-yl)oxy]benzoyl}-4,4-difluoro-L-prolinamide], the EC50 is 377 nM in test [1] (setting [3]) and > 10000 nM in test [2].

Turning to `Cc1nc([C@@](C)(CC2CC2)NC(=O)c2ccc(C3CC3)c(OC(C)C)c2)no1` [Example 49, 4-Cyclopropyl-N-[(2R)-1-cyclopropyl-2-(5-methyl-1,2,4-oxadiazol-3-yl)propan-2-yl]-3-[(propan-2-yl)oxy]benzamide], the EC50 in test [1] is 42.1 nM; in test [2] it was > 10000 nM.

Consider `Cc1nc([C@@](C)(CC2CC2)NC(=O)c2ccc(C3CC3)c(-c3ccc(F)nc3)c2)no1` [Example 50, 4-Cyclopropyl-N-[(2R)-1-cyclopropyl-2-(5-methyl-1,2,4-oxadiazol-3-yl)propan-2-yl]-3-(6-fluoropyridin-3-yl)benzamide], for which the EC50 is 53.7 nM in test [1] and > 10000 nM in test [2].

`C[C@@](CC(N)=O)(NC(=O)c1ccc(C2CC2)c(OCC(F)(F)F)c1)C1CC1` [Example 51, N-[(2S)-4-Amino-2-cyclopropyl-4-oxobutan-2-yl]-4-cyclopropyl-3-(2,2,2-trifluoroethoxy)benzamide]: the concentration giving a half-maximal response (EC50) in test [1] was 80.8 nM; in test [2], > 10000 nM.
